Experimental data as given in the NIST ThermoML archive (doi:10.1021/je300405a).

Details: Liquid; for speed of sound: Pulse-echo method; for mass density: Vibrating tube method

CCCCCCCCCC(=O)OCC [ethyl decanoate]
Details | mass density, 293.15 K [kg/m3] | mass density, 303.15 K [kg/m3] | mass density, 313.15 K [kg/m3] | mass density, 323.15 K [kg/m3] | mass density, 333.15 K [kg/m3] | mass density, 343.15 K [kg/m3] | speed of sound, 283.15 K [m/s] | speed of sound, 303.15 K [m/s] | speed of sound, 323.15 K [m/s] | speed of sound, 343.15 K [m/s]
101.3 kPa | 863.82 | 855.53 | 847.99 | 839.75 | 831.19 | 822.9 | 1352.7 | 1275 | 1203.1 | 1133.3
10000 kPa | 870.79 | 863.17 | 855.19 | 847.49 | 839.38 | 831.45 | 1398.5 | 1325.7 | 1258.2 | 1192.8
20000 kPa | 877.08 | 869.73 | 862 | 854.78 | 846.93 | 839.59 | 1442.3 | 1373.2 | 1309.5 | 1247
30000 kPa | 882.99 | 875.81 | 868.5 | 861.46 | 853.95 | 846.94 | 1483.7 | 1416.8 | 1355.9 | 1297.2
40000 kPa | 888.58 | 881.53 | 874.4 | 867.52 | 860.39 | 853.75 | 1522.5 | 1458.3 | 1399.1 | 1343
50000 kPa | 893.79 | 887 | 880 | 873.23 | 866.43 | 860.03 | 1558.3 | 1498 | 1439.4 | 1385.7
60000 kPa | 898.83 | 892.12 | 885.4 | 879.07 | 872.17 | 865.88 | 1593.9 | 1535.5 | 1478.4 | 1425.7
70000 kPa | 903.51 | 897.09 | 890.5 | 884.28 | 877.53 | – | 1627 | 1569.9 | 1515.1 | 1463.9
80000 kPa | 907.69 | 901.73 | 895.4 | 889.28 | 882.56 | – | 1658.8 | 1603.2 | 1550.3 | –
90000 kPa | 912.24 | 906.27 | 900 | 894.05 | 887.46 | – | 1689.9 | 1635.3 | 1583.7 | –
100000 kPa | 916.37 | 910.56 | 904.4 | 898.41 | 892.18 | – | 1720.7 | 1666.2 | 1615.7 | –
110000 kPa | – | – | – | – | – | – | 1753.7 | 1696.2 | 1645.8 | –
120000 kPa | – | – | – | – | – | – | 1781.4 | 1724.8 | 1676.7 | –
130000 kPa | – | – | – | – | – | – | 1808.5 | 1752.9 | 1705.7 | –
140000 kPa | – | – | – | – | – | – | 1834.6 | 1779.2 | 1733.7 | –
150000 kPa | – | – | – | – | – | – | 1860.3 | 1805.4 | 1760.3 | –
170000 kPa | – | – | – | – | – | – | 1908.7 | 1854.6 | 1811.6 | –
190000 kPa | – | – | – | – | – | – | 1951.8 | 1902.4 | 1861.2 | –
210000 kPa | – | – | – | – | – | – | 1998 | 1947.7 | 1909.8 | –
